Measured values as given in PubChem BioAssay (NCI).
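In this assay, cells in 96-well plates receive the compound at five concentrations for 48 hours. Endpoints are linearly interpolated between the surrounding concentrations. At the GI50, growth is halved. TGI is the concentration that stops growth completely.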

What was measured:
Assay in all cases: NCI-60 cell line screen, 48 h
SNB-19 CNS = test system: SNB-19 CNS
NCI-H23 lung = test system: NCI-H23 lung
786-0 renal = test system: 786-0 renal
A498 renal = test system: A498 renal
SR leukemia = test system: SR leukemia
MOLT-4 leukemia = test system: MOLT-4 leukemia
UACC-257 melanoma = test system: UACC-257 melanoma
SK-OV-3 ovarian = test system: SK-OV-3 ovarian
SK-MEL-28 melanoma = test system: SK-MEL-28 melanoma
OVCAR-4 ovarian = test system: OVCAR-4 ovarian
MDA-MB-231 breast = test system: MDA-MB-231 breast
SF-268 CNS = test system: SF-268 CNS
UACC-62 melanoma = test system: UACC-62 melanoma
EKVX NSCLC = test system: EKVX NSCLC
SK-MEL-5 melanoma = test system: SK-MEL-5 melanoma
NCI-H460 lung = test system: NCI-H460 lung
KM12 colon = test system: KM12 colon
OVCAR-3 ovarian = test system: OVCAR-3 ovarian
UO-31 renal = test system: UO-31 renal
SK-MEL-2 melanoma = test system: SK-MEL-2 melanoma
CCRF-CEM leukemia = test system: CCRF-CEM leukemia
COLO 205 colon = test system: COLO 205 colon
MDA-MB-435 = test system: MDA-MB-435
NCI/ADR-RES ovarian = test system: NCI/ADR-RES ovarian
HCC-2998 colon = test system: HCC-2998 colon
PC-3 prostate = test system: PC-3 prostate
SN12C renal = test system: SN12C renal
U251 CNS = test system: U251 CNS
K-562 leukemia = test system: K-562 leukemia
SF-539 CNS = test system: SF-539 CNS
A549 NSCLC = test system: A549 NSCLC
HOP-92 NSCLC = test system: HOP-92 NSCLC
NCI-H522 lung = test system: NCI-H522 lung
T-47D breast = test system: T-47D breast
OVCAR-8 ovarian = test system: OVCAR-8 ovarian
SF-295 CNS = test system: SF-295 CNS
ACHN renal = test system: ACHN renal
HCT-116 colon = test system: HCT-116 colon
BT-549 breast = test system: BT-549 breast
RXF 393 renal = test system: RXF 393 renal
MCF7 breast = test system: MCF7 breast
CAKI-1 renal = test system: CAKI-1 renal
HS 578T breast = test system: HS 578T breast
TK-10 renal = test system: TK-10 renal
SNB-75 CNS = test system: SNB-75 CNS
LOX IMVI melanoma = test system: LOX IMVI melanoma
NCI-H226 lung = test system: NCI-H226 lung
OVCAR-5 ovarian = test system: OVCAR-5 ovarian
DU-145 prostate = test system: DU-145 prostate
HT29 colon = test system: HT29 colon
RPMI-8226 leukemia = test system: RPMI-8226 leukemia
M14 melanoma = test system: M14 melanoma
IGROV1 ovarian = test system: IGROV1 ovarian
SW-620 colon = test system: SW-620 colon
HOP-62 NSCLC = test system: HOP-62 NSCLC
HCT-15 colon = test system: HCT-15 colon

**Q.** How did the GI50 (SNB-19 CNS) turn out when `C/C1=C\CC[C@@](C)(O)[C@H]2C[C@H](CC/C(C)=C/CC1)C1(CC1)C(=O)O2` was run?
**A.** 85.6 µM

**Q.** And the TGI (SNB-19 CNS)?
**A.** > 100 µM

**Q.** And the GI50 (NCI-H23 lung)?
**A.** 38 µM

**Q.** And the TGI (NCI-H23 lung)?
**A.** > 100 µM

**Q.** And the GI50 (786-0 renal)?
**A.** 16.4 µM

**Q.** What about the TGI (786-0 renal) of the same compound?
**A.** 30.6 µM

**Q.** And the GI50 (A498 renal)?
**A.** 20.1 µM

**Q.** What about the TGI (A498 renal) of the same compound?
**A.** 66.2 µM

**Q.** What about the GI50 (SR leukemia) of the same compound?
**A.** 14.1 µM

**Q.** What about the TGI (SR leukemia) of the same compound?
**A.** 32.6 µM

**Q.** What about the GI50 (MOLT-4 leukemia) of the same compound?
**A.** 16.6 µM

**Q.** What about the TGI (MOLT-4 leukemia) of the same compound?
**A.** 55.9 µM

**Q.** What about the GI50 (UACC-257 melanoma) of the same compound?
**A.** 19.4 µM

**Q.** What about the TGI (UACC-257 melanoma) of the same compound?
**A.** 67.2 µM

**Q.** What about the GI50 (SK-OV-3 ovarian) of the same compound?
**A.** > 100 µM

**Q.** And the TGI (SK-OV-3 ovarian)?
**A.** > 100 µM

**Q.** And the GI50 (SK-MEL-28 melanoma)?
**A.** 45.3 µM

**Q.** And the TGI (SK-MEL-28 melanoma)?
**A.** > 100 µM

**Q.** What about the GI50 (OVCAR-4 ovarian) of the same compound?
**A.** 63.4 µM

**Q.** And the TGI (OVCAR-4 ovarian)?
**A.** > 100 µM

**Q.** And the GI50 (MDA-MB-231 breast)?
**A.** 17.5 µM

**Q.** And the TGI (MDA-MB-231 breast)?
**A.** 35.1 µM

**Q.** What about the GI50 (SF-268 CNS) of the same compound?
**A.** 19.3 µM

**Q.** And the TGI (SF-268 CNS)?
**A.** 41.2 µM

**Q.** What about the GI50 (UACC-62 melanoma) of the same compound?
**A.** 23.9 µM

**Q.** What about the TGI (UACC-62 melanoma) of the same compound?
**A.** 99.8 µM

**Q.** And the GI50 (EKVX NSCLC)?
**A.** 37 µM

**Q.** What about the TGI (EKVX NSCLC) of the same compound?
**A.** > 100 µM

**Q.** And the GI50 (SK-MEL-5 melanoma)?
**A.** 18.6 µM

**Q.** What about the TGI (SK-MEL-5 melanoma) of the same compound?
**A.** 35.1 µM

**Q.** What about the GI50 (NCI-H460 lung) of the same compound?
**A.** 19.6 µM

**Q.** And the TGI (NCI-H460 lung)?
**A.** 45.7 µM

**Q.** What about the GI50 (KM12 colon) of the same compound?
**A.** 37.2 µM

**Q.** And the TGI (KM12 colon)?
**A.** > 100 µM

**Q.** And the GI50 (OVCAR-3 ovarian)?
**A.** 25.2 µM

**Q.** What about the TGI (OVCAR-3 ovarian) of the same compound?
**A.** 84.7 µM

**Q.** And the GI50 (UO-31 renal)?
**A.** 18.2 µM

**Q.** And the TGI (UO-31 renal)?
**A.** 33.8 µM

**Q.** And the GI50 (SK-MEL-2 melanoma)?
**A.** 39.1 µM

**Q.** And the TGI (SK-MEL-2 melanoma)?
**A.** > 100 µM

**Q.** And the GI50 (CCRF-CEM leukemia)?
**A.** 13.5 µM

**Q.** What about the TGI (CCRF-CEM leukemia) of the same compound?
**A.** 39 µM

**Q.** And the GI50 (COLO 205 colon)?
**A.** 32.5 µM

**Q.** What about the TGI (COLO 205 colon) of the same compound?
**A.** > 100 µM

**Q.** And the GI50 (MDA-MB-435)?
**A.** 25.4 µM

**Q.** And the TGI (MDA-MB-435)?
**A.** 79.1 µM

**Q.** What about the GI50 (NCI/ADR-RES ovarian) of the same compound?
**A.** 23.6 µM

**Q.** And the TGI (NCI/ADR-RES ovarian)?
**A.** 57.4 µM

**Q.** And the GI50 (HCC-2998 colon)?
**A.** 18 µM

**Q.** And the TGI (HCC-2998 colon)?
**A.** 35.2 µM

**Q.** What about the GI50 (PC-3 prostate) of the same compound?
**A.** 14.8 µM

**Q.** What about the TGI (PC-3 prostate) of the same compound?
**A.** 32.4 µM

**Q.** What about the GI50 (SN12C renal) of the same compound?
**A.** 20.3 µM

**Q.** What about the TGI (SN12C renal) of the same compound?
**A.** 43.2 µM

**Q.** What about the GI50 (U251 CNS) of the same compound?
**A.** 17.5 µM

**Q.** What about the TGI (U251 CNS) of the same compound?
**A.** 37.1 µM

**Q.** And the GI50 (K-562 leukemia)?
**A.** 13.2 µM

**Q.** And the TGI (K-562 leukemia)?
**A.** 29 µM

**Q.** And the GI50 (SF-539 CNS)?
**A.** 17.1 µM

**Q.** And the TGI (SF-539 CNS)?
**A.** 33.5 µM

**Q.** And the GI50 (A549 NSCLC)?
**A.** 17.4 µM

**Q.** What about the TGI (A549 NSCLC) of the same compound?
**A.** 32.3 µM

**Q.** And the GI50 (HOP-92 NSCLC)?
**A.** 16 µM

**Q.** And the TGI (HOP-92 NSCLC)?
**A.** 33.3 µM

**Q.** And the GI50 (NCI-H522 lung)?
**A.** 23.1 µM

**Q.** What about the TGI (NCI-H522 lung) of the same compound?
**A.** 62.9 µM

**Q.** And the GI50 (T-47D breast)?
**A.** 36.5 µM

**Q.** What about the TGI (T-47D breast) of the same compound?
**A.** > 100 µM

**Q.** What about the GI50 (OVCAR-8 ovarian) of the same compound?
**A.** 20 µM

**Q.** What about the TGI (OVCAR-8 ovarian) of the same compound?
**A.** 40.8 µM

**Q.** What about the GI50 (SF-295 CNS) of the same compound?
**A.** 19.3 µM

**Q.** What about the TGI (SF-295 CNS) of the same compound?
**A.** 46.7 µM

**Q.** And the GI50 (ACHN renal)?
**A.** 16.8 µM

**Q.** What about the TGI (ACHN renal) of the same compound?
**A.** 31.3 µM

**Q.** What about the GI50 (HCT-116 colon) of the same compound?
**A.** 18.1 µM

**Q.** What about the TGI (HCT-116 colon) of the same compound?
**A.** 32.2 µM

**Q.** And the GI50 (BT-549 breast)?
**A.** 23.7 µM

**Q.** What about the TGI (BT-549 breast) of the same compound?
**A.** 55.7 µM

**Q.** What about the GI50 (RXF 393 renal) of the same compound?
**A.** 18.4 µM

**Q.** What about the TGI (RXF 393 renal) of the same compound?
**A.** 42.8 µM

**Q.** What about the GI50 (MCF7 breast) of the same compound?
**A.** 21 µM

**Q.** And the TGI (MCF7 breast)?
**A.** 57.4 µM

**Q.** What about the GI50 (CAKI-1 renal) of the same compound?
**A.** 20.7 µM

**Q.** And the TGI (CAKI-1 renal)?
**A.** 43.3 µM

**Q.** And the GI50 (HS 578T breast)?
**A.** 29.9 µM

**Q.** What about the TGI (HS 578T breast) of the same compound?
**A.** 96.5 µM

**Q.** And the GI50 (TK-10 renal)?
**A.** 32.9 µM

**Q.** What about the TGI (TK-10 renal) of the same compound?
**A.** > 100 µM

**Q.** What about the GI50 (SNB-75 CNS) of the same compound?
**A.** 44.2 µM

**Q.** And the TGI (SNB-75 CNS)?
**A.** > 100 µM

**Q.** What about the GI50 (LOX IMVI melanoma) of the same compound?
**A.** 13.6 µM

**Q.** And the TGI (LOX IMVI melanoma)?
**A.** 28.6 µM

**Q.** And the GI50 (NCI-H226 lung)?
**A.** 21.2 µM

**Q.** What about the TGI (NCI-H226 lung) of the same compound?
**A.** 46.5 µM

**Q.** And the GI50 (OVCAR-5 ovarian)?
**A.** 31.4 µM

**Q.** And the TGI (OVCAR-5 ovarian)?
**A.** 80 µM

**Q.** And the GI50 (DU-145 prostate)?
**A.** 16.6 µM

**Q.** And the TGI (DU-145 prostate)?
**A.** 31.2 µM

**Q.** And the GI50 (HT29 colon)?
**A.** 36.6 µM

**Q.** What about the TGI (HT29 colon) of the same compound?
**A.** > 100 µM

**Q.** What about the GI50 (RPMI-8226 leukemia) of the same compound?
**A.** 14.2 µM

**Q.** And the TGI (RPMI-8226 leukemia)?
**A.** 35.8 µM

**Q.** What about the GI50 (M14 melanoma) of the same compound?
**A.** 31.4 µM

**Q.** And the TGI (M14 melanoma)?
**A.** > 100 µM

**Q.** And the GI50 (IGROV1 ovarian)?
**A.** 18.9 µM

**Q.** And the TGI (IGROV1 ovarian)?
**A.** 39.7 µM

**Q.** And the GI50 (SW-620 colon)?
**A.** 21.8 µM

**Q.** What about the TGI (SW-620 colon) of the same compound?
**A.** 46.2 µM

**Q.** What about the GI50 (HOP-62 NSCLC) of the same compound?
**A.** 18.5 µM

**Q.** And the TGI (HOP-62 NSCLC)?
**A.** 35.4 µM

**Q.** And the GI50 (HCT-15 colon)?
**A.** 17.6 µM

**Q.** And the TGI (HCT-15 colon)?
**A.** 36.8 µM
